One data set addresses GLP-1 receptor (Homo sapiens (Human), UniProt P43220). Briefly: Agonist activity against GLP-1 receptor, CRE-luciferase reporter (ONE-Glo) in CHO-K1/CRE-luc/GLP-1 receptor cells. The class given is cell-based. The settings on record: 6 h incubation. From the text: This experiment was intended to test the agonist activity of the compound molecules against the GLP-1 receptor and evaluate the in vitro activity of the molecules according to EC50. The experiment adopted a ONE-Glo™ Luciferase Assay System (Promega, E6110). Under the action of compound molecules, GLP-1R downstream signaling pathways were activated to cause elevated cAMP level. The combination of cAMP and CRE could start the transcription expression of CRE downstream luciferase genes, the luciferase could emit fluorescence when reacting with substrates thereof, and the activity of the compound for agonizing GLP-1 receptors was reflected by measuring fluorescence signals through a ONE-Glo™ reagent.
Stably-expressed CHO-K1/CRE-luc/GLP-1 receptor cell strains (self-construction of GLP-1 receptor plasmid; CRE-luc plasmid Promega E8471) were constructed. CHO-K1/CRE-luc/GLP-1 receptor cells were digested, and resuspended after centrifugation. […] The plate was incubated in an incubator for 16 h (37° C., 5% CO2).
The compound was dissolved in DMSO to prepare a stock solution with an initial concentration of 20 mM. The starting concentration of the small molecule compound was 0.2 mM, and the compound underwent 3-fold serial dilution for a total of 10 concentration points, with DMSO at the 11th point. To another 96-well plate was added 95 μL of cell culture medium (DME/F-12+10% FBS), 5 μL of test samples with different concentrations were added to each well, followed by uniform mixing, and then 10 μL of test samples with different concentrations were added to each well, with two duplicate wells set for each sample. The plate was incubated in an incubator for 6 h (37° C., 5% CO2). The 96-well cell culture plate was taken out, and 100 μL of ONE-Glo™ reagent was added to each well, followed by incubation at room temperature for 10 min. The plate was placed in a microplate reader (EnVision 2105, PE) for determination of chemiluminescence.
Data were processed and analyzed using Microsoft Excel and Graphpad Prism 5.
(In general: A reporter such as luciferase makes a cellular process visible.)

In another data set the target is hERG potassium channel (Homo sapiens (Human), UniProt Q12809). Nature of the data set: Blocking effect on hERG potassium currents, manual patch-clamp in CHO cells stably expressing hERG channel. The class given is cell-based. The settings on record: read-out: IC50 for the blocking effect on the hERG potassium ion channel. From the text: This example is intended to assess the blocking effect of the compounds of the present disclosure and positive compound 1 (see the compound of Example 7 on page 125 of WO2019239319A1) on hERG potassium currents in a stable cell strain transfected with an hERG potassium channel by a manual patch-clamp assay. The structure of positive compound 1 is shown below:
The cells used in this experiment were from a CHO cell line (provided by Sophion Bioscience, Denmark) transfected with hERG cDNA and stably expressing hERG channel at cell passage number of P5. Cells were cultured in a medium containing the following components (all from Invitrogen): Ham's F12 medium, 10% (v/v) inactivated fetal bovine serum, 100 μg/mL hygromycin B, and 100 μg/mL geneticin.
CHO hERG cells were grown in a culture dish containing the above culture medium and cultured in an incubator at 37° C. with 5% CO2. 24-48 h before the electrophysiological experiment, CHO hERG cells were transferred to round slides placed in the culture dish and grown in the same culture medium and culture conditions as above. The density of CHO hERG cells on each round slide was required to achieve the requirement that most cells were independent and individual.
In this experiment, a manual patch-clamp system (HEKA EPC-10 signal amplifier and digital conversion system, purchased from HEKA Electronics, Germany) was used for whole cell current recording. Round slides with CHO hERG cells grown on the surface were placed in an electrophysiological recording chamber under an inverted microscope. The chamber was continuously perfused with extracellular fluid (approximately 1 mL/min). The experimental procedures were performed by conventional whole-cell patch-clamp current recording technology. Unless otherwise stated, the experiment was performed at room temperature ([…]). The cells were clamped at a voltage of −80 mV. The cell clamp voltage was depolarized to +20 mV to activate the hERG potassium channel, and then clamped to −50 mV 5 s later to eliminate inactivation and generate tail currents. The tail current peak was used as a value for the numeral value of the hERG current. After the hERG potassium currents recorded in the above step were stable under the continuous extracellular fluid perfusion in the recording chamber, the drug to be tested could be added for perfusion until the inhibitory effect of the drug on the hERG current reached a stable state. Generally, the last superposition of 3 consecutive current recording lines is used as a criterion for determining whether a stable state is reached. […]
The experimental data were analyzed by data analysis software supplied by HEKA Patchmaster(V2x73.2), Microsoft Excel, and Graphpad Prism 5.0. […]

We go through eleven compounds from patent US20230322756A1, “FUSED IMIDAZOLE DERIVATIVE, PREPARATION METHOD THEREFOR, AND MEDICAL USE THEREOF” (JIANGSU HENGRUI MEDICINE CO., LTD., priority 2020, published 2023).

For orientation: EC50 means the concentration giving half of the maximal effect. By Emax is commonly meant the size of the effect at its maximum, as opposed to the concentration needed. One may read the IC50 as the point on the concentration scale where inhibition reaches its midpoint.

GLP-1 receptor, sequence (P43220 24-463): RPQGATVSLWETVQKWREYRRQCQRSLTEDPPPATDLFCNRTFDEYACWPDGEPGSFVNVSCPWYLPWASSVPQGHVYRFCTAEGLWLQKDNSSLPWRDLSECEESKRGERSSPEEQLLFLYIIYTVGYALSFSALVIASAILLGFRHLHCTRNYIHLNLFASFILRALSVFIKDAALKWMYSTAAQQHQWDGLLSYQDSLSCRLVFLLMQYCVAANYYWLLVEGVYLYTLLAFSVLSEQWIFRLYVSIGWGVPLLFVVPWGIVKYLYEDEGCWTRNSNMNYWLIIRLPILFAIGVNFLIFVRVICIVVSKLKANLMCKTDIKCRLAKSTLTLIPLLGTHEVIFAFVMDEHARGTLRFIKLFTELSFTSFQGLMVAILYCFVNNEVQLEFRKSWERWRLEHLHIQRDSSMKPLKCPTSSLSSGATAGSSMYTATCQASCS
hERG potassium channel, sequence (Q12809 whole entry): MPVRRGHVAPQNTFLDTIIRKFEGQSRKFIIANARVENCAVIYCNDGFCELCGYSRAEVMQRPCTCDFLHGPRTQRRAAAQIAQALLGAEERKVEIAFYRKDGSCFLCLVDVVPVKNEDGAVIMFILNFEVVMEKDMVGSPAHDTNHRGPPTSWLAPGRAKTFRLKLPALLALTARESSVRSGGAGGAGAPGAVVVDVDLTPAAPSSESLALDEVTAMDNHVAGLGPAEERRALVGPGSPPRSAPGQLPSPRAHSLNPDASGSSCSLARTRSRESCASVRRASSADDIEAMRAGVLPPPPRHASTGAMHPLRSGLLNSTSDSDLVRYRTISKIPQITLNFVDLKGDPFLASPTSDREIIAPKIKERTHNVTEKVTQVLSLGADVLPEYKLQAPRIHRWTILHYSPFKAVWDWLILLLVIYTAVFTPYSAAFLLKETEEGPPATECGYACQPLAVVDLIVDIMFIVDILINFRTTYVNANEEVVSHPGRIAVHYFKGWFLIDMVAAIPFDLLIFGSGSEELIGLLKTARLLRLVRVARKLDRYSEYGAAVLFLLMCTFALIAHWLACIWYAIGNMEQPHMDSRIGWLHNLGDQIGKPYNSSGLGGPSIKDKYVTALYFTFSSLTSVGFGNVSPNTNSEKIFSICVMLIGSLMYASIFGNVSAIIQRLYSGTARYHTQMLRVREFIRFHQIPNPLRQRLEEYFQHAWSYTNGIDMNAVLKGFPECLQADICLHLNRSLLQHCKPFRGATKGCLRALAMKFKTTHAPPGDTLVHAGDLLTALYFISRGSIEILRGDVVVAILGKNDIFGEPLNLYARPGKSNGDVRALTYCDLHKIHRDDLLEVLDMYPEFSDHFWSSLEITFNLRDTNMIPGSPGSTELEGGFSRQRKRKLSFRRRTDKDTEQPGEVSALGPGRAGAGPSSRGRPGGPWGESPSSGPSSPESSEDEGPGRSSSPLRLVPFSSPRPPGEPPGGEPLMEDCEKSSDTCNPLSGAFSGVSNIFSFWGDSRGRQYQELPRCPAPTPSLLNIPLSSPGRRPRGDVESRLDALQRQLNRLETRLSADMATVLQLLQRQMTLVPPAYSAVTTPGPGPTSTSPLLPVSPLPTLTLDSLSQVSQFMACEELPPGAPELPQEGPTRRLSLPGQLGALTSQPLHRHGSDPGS

For `O=C(O)c1ccc2nc(CN3CCC(c4cccc5c4OC(c4nc6ccccc6s4)CO5)CC3)n(C[C@@H]3CCO3)c2c1` (stereo partly drawn) [Example 1, 2-((4-(3-(Benzo[d]thiazol-2-yl)-2,3-dihydrobenzo[b][1,4]dioxan-5-yl)piperidin-1-yl)methyl)-1-(((S)-oxetan-2-yl)methyl)-1H-benzo[d]imidazole-6-carboxylic acid], on GLP-1 receptor, the concentration for a half-maximal effect (EC50) worked out at 0.56 nM and the Emax came to 109%.

Regarding `CC1(c2ccc(Cl)cc2F)COc2c(cccc2C2CCN(Cc3nc4ccc(C(=O)O)cc4n3C[C@@H]3CCO3)CC2)O1` (stereo partly drawn) [Example 18, 2-((4-(2-(4-Chloro-2-fluorophenyl)-2-methyl-2,3-dihydrobenzo[b][1,4]dioxan-5-yl)piperidin-1-yl)methyl)-1-(((S)-oxetan-2-yl)methyl)-1H-benzo[d]imidazole-6-carboxylic acid], at GLP-1 receptor, the 50% effective concentration (EC50) worked out at 18.4 nM and the maximal response (Emax) stood at 103%.

Turning to `O=C(O)c1ccc2nc(CN3CCC(c4cccc5c4OCC(c4nc6ccccc6s4)O5)CC3)n(C[C@@H]3CCO3)c2c1` (stereo partly drawn) [Example 9, 2-((4-(2-(Benzo[d]thiazol-2-yl)-2,3-dihydrobenzo[b][1,4]dioxan-5-yl)piperidin-1-yl)methyl)-1-(((S)-oxetan-2-yl)methyl)-1H-benzo[d]imidazole-6-carboxylic acid], on GLP-1 receptor, the concentration giving a half-maximal response (EC50) was 2.05 nM and the maximal response (Emax) is 104%.

Take `O=C(O)c1ccc2nc(CN3CCN(c4cccc5c4O[C@@H](c4ccc(Cl)cc4F)CO5)CC3)n(C[C@@H]3CCO3)c2c1` [Example 14, 2-((4-((S)-3-(4-Chloro-2-fluorophenyl)-2,3-dihydrobenzo[b][1,4]dioxan-5-yl)piperazin-1-yl)methyl)-1-(((S)-oxetan-2-yl)methyl)-1H-benzo[d]imidazole-6-carboxylic acid]: at GLP-1 receptor, the EC50 is 1.79 nM and the maximal response (Emax) is 104%.

As for `O=C(O)c1ccc2nc(CN3CCC(c4cccc5c4OC(c4ccc(Cl)cc4F)CO5)CC3)n(C[C@@H]3CCO3)c2n1` (stereo partly drawn) [Example 12, 2-((4-(3-(4-Chloro-2-fluorophenyl)-2,3-dihydrobenzo[b][1,4]dioxan-5-yl)piperidin-1-yl)methyl)-3-((S)-oxetan-2-ylmethyl)-3H-imidazo[4,5-b]pyridine-5-carboxylic acid], at GLP-1 receptor, the concentration for a half-maximal effect (EC50) was 1.72 nM and the Emax was 114%. In addition, the IC50 on hERG potassium channel is 26100 nM.

Regarding `O=C(O)c1ccc2nc(CN3CC=C(c4cccc5c4OC(c4ccc(Cl)cc4F)CO5)CC3)n(C[C@@H]3CCO3)c2c1` (some centres unmarked) [Example 17], at GLP-1 receptor, the EC50 turned out to be 9.9 nM and the maximal effect (Emax) amounted to 112%.

For `CC1(c2ccc(Cl)cc2F)COc2cccc(C3CCN(Cc4nc5ccc(C(=O)O)cc5n4C[C@@H]4CCO4)CC3)c2O1` (stereo partly drawn) [Example 20, 2-((4-(3-(4-Chloro-2-fluorophenyl)-3-methyl-2,3-dihydrobenzo[b][1,4]dioxan-5-yl)piperidin-1-yl)methyl)-1-(((S)-oxetan-2-yl)methyl)-1H-benzo[d]imidazole-6-carboxylic acid], at GLP-1 receptor, the EC50 is 51 nM and the Emax turned out to be 90%.

As to `O=C(O)c1ccc2nc(CN3CCC(c4cccc5c4OC(c4ccc(Cl)cn4)CO5)CC3)n(C[C@@H]3CCO3)c2c1` (stereo partly drawn) [Example 13, 2-((4-(3-(5-Chloropyridin-2-yl)-2,3-dihydrobenzo[b][1,4]dioxan-5-yl)piperidin-1-yl)methyl)-1-(((S)-oxetan-2-yl)methyl)-1H-benzo[d]imidazole-6-carboxylic acid], on GLP-1 receptor, the EC50 amounted to 1.76 nM and the maximal effect (Emax) worked out at 108%.

Regarding `O=C(O)c1ccc2nc(CN3CCC(c4cccc5c4OC[C@H](c4nc6ccccc6s4)O5)CC3)n(C[C@@H]3CCO3)c2c1` [Example 10, 2-((4-((R)-2-(Benzo[d]thiazol-2-yl)-2,3-dihydrobenzo[b][1,4]dioxan-5-yl)piperidin-1-yl)methyl)-1-(((S)-oxetan-2-yl)methyl)-1H-benzo[d]imidazole-6-carboxylic acid], on GLP-1 receptor, the half-maximal effective concentration (EC50) came out at 1.19 nM and the Emax came out at 103%.

In the case of `N#Cc1ccc(C2COc3cccc(C4CCN(Cc5nc6ccc(C(=O)O)cc6n5C[C@@H]5CCO5)CC4)c3O2)c(F)c1` (stereo partly drawn) [Example 16, 2-((4-(3-(4-Cyano-2-fluorophenyl)-2,3-dihydrobenzo[b][1,4]dioxan-5-yl)piperidin-1-yl)methyl)-1-((S)-oxetan-2-ylmethyl)-1H-benzo[d]imidazole-6-carboxylic acid], at GLP-1 receptor, the concentration giving a half-maximal response (EC50) is 1.42 nM and the maximal effect (Emax) is 116%.

On to `O=C(O)c1ccc2nc(CN3CCC(c4cccc5c4OC[C@@H](c4nc6ccccc6s4)O5)CC3)n(C[C@@H]3CCO3)c2c1` [Example 11, 2-((4-((S)-2-(Benzo[d]thiazol-2-yl)-2,3-dihydrobenzo[b][1,4]dioxan-5-yl)piperidin-1-yl)methyl)-1-(((S)-oxetan-2-yl)methyl)-1H-benzo[d]imidazole-6-carboxylic acid], for which, at GLP-1 receptor, the EC50 was 1.68 nM and the maximal response (Emax) amounted to 104%.
